Where “and” joins values, the source holds several entries; their conditions need not be identical. Equal entries are not always repeated.
Legend:
Type in all cases: cell-based, human
MCF-7 cells [1] = assay: Transwell Matrigel invasion assay
Experimental: In order to evaluate whether 7m could suppress migration and invasion, the MCF-7 cell culture was performed by wound healing and Transwell Matrigel assay, respectively.
(§1) The upper chamber of the Transwell chamber was filled with cells resuspended in serum-free medium, 6 × 10^4 cells per well, 100 μl per well, and the lower chamber was added with 10% FBS-containing medium prepared with different concentrations of 7m. The cells were allowed to migrate for 48 h at 37°C in an atmosphere of 5% CO2. Then the migration of cells to the underside of the filter was determined by crystal violet staining.

[2] = test system: Caspase-3/-7/-9 and PARP in MCF-7 cells; assay: Western blot of apoptosis-related proteins
Source text: The Caspase family proteins are considered to be critical regulators of cell apoptosis and facilitate cellular disassembly. Among them, Caspase-9 is termed as a typical caspase and is usually activated first, which in turn activates the “executioner” of apoptosis induction, in particular, Caspase-3. It is known that the […] of poly (ADP-ribose) polymerase (PARP), a downstream substrate of Caspase-3, is a common feature of nuclear fragmentation and chromatin condensation ([Hensley and Kyprianou, 2013]). Thus, the association between 7m-induced apoptosis and the expression of these proteins was investigated by Western blot analysis. MCF-7 cells were treated with 7m at different concentrations (100, 200, and 400 nM) for 48 h.
MCF-7 cells were seeded into […] dishes at a density of 6 × 10^5/dish and incubated for 24 h. After treating the cells with the compound 7m, the cells were cultured for 48 h and washed with PBS, and then the soluble and insoluble tubulin fractions were collected. Protein quantification was performed by BCA Protein Concentration Determination Kit following centrifugation at 12,000 rpm for 10 min at 4°C. Cell lysates were separated by SDS-PAGE at 80 V constant voltage for 30–40 min. […] After 5% skim milk was blocked for 1 h, the primary antibody was added and incubated overnight before being washed three times with PBST. The secondary antibody was incubated for 2 h at room temperature the next day and subsequently washed three times with PBST. Then the signal was detected with ECL.

HUVECs [3] = assay: Transwell cell invasion experiment; details: 1, 5, 25 μΜ
Experimental: A wound healing assay was, thus, performed to evaluate the capacity of 7m to inhibit cell motility. […] Then the invasion inhibitory activities of 7m were further detected using Transwell assay with HUVECs cells treated with 0, 1, 5, and 25 μΜ of 7m. In this assay, […] were seeded into upper chambers which were pre-coated with Matrigel matrix in order to evaluate the cellular invasion.
as §1

HUVECs [4] = assay: Tube formation assay; details: 1, 5, 25 μM, 6–8 h
Experimental: HUVECs (human umbilical vein endothelial cells) grown on Matrigel were commonly used as a tube formation model and also a widely studied human endothelial cell type in angiogenesis, for their ability to alter their shape to resemble capillaries ([Aranda and Owen, 2009]). […] We therefore examined the effects of 7m on HUVEC tube formation to evaluate its potential effect on angiogenesis.
The HUVECs were seeded in 96-well plates and cultured for 24 h, and then incubated with 1, 5, and 25 μM 7m. The EC Matrigel matrix was thawed overnight at 4°C. The HUVECs, suspended in F12K, were seeded in a 96-well culture plate at a cell density of 10,000 cells/well after 45 min of Matrigel polymerization at 37°C. Then they were treated with different concentrations of 7m or carrier at 37°C for 6–8 h. Then the morphological changes of the formed cells and tubes under an inverted microscope were observed, and pictures were taken.

MCF-7 cells [5] = assay: Apoptosis analysis, Annexin-V FITC/PI flow cytometry; details: for Late-apoptosis (Q2 of Annexin/PI plot), single runs / Pro-apoptosis (Q3 of Annexin/PI plot), single runs / percentage of apoptotic cells (early and late apoptosis): 48 h
Experimental: To test whether compound 7m induced reduction in cell viability was responsible for the induction of apoptosis, MCF-7 cells were stained with Annexin-V FITC/PI staining, and the number of apoptotic cells was estimated by flow cytometry.
The MCF-7 cells in 12-well plates (8 × 10^4 cells/well) were cultured for 24 h at 37°C in 5% CO2 and then incubated with 7m at concentrations of 100, 200, 400 nM, or vehicle to induce cell apoptosis for 48 h. Then the cells floating in the supernatant were combined with the adherent fraction and washed with PBS three times. The cells were incubated with Annexin V-FITC and PI for 15 min at 37°C in the dark. Apoptosis was quantified using a flow cytometer (Becton, Dickinson and Company, USA).

3-(benzofuran-6-yl)-2-methyl-1-(3,4,5-trimethoxyphenyl)prop-2-en-1-one [Compound 7m]
MCF-7 cells invasion (MCF-7 cells [1]): hinder the MCF-7 cells invasion in a dose-dependent manner
Caspase3, band quantification ([2]; 100nM, two runs): 1.6879 and 1.67
Caspase7, band quantification ([2]; 100nM, two runs): 1.25 and 1.4891
Caspase9, band quantification ([2]; 100nM, two runs): 0.8806
Cleaved caspase 3, band quantification ([2]; 100nM, two runs): 0.4362 and 0.4615
Cleaved caspase 7, band quantification ([2]; 100nM, two runs): 0.3077 and 0.3272
Cleaved caspase 9, band quantification ([2]; 100nM, two runs): 0.7024 and 0.6835
Cleaved parp, band quantification ([2]; 100nM, two runs): 0.5428 and 0.547
Caspase3, band quantification ([2]; 200nM, two runs): 1.615 and 1.544
Caspase7, band quantification ([2]; 200nM, two runs): 1.204 and 1.374
Caspase9, band quantification ([2]; 200nM, two runs): 0.8807 and 0.8294
Cleaved caspase 3, band quantification ([2]; 200nM, two runs): 0.3538 and 0.3842
Cleaved caspase 7, band quantification ([2]; 200nM, two runs): 0.3681 and 0.3821
Cleaved caspase 9, band quantification ([2]; 200nM, two runs): 0.8845 and 0.8641
Cleaved parp, band quantification ([2]; 200nM, two runs): 0.6141 and 0.6251
PARP, band quantification ([2]; 200nM, two runs): 0.2886 and 0.4533
Caspase3, band quantification ([2]; 400nM, two runs): 1.359 and 1.362
Caspase7, band quantification ([2]; 400nM, two runs): 1.134 and 1.286
Caspase9, band quantification ([2]; 400nM, two runs): 0.8246 and 0.7921
Cleaved caspase 3, band quantification ([2]; 400nM, two runs): 0.6252 and 0.6493
Cleaved caspase 7, band quantification ([2]; 400nM, two runs): 0.3556 and 0.4028
Cleaved caspase 9, band quantification ([2]; 400nM, two runs): 0.8063 and 0.765
Cleaved parp, band quantification ([2]; 400nM, two runs): 0.6767 and 0.7365
activation of Caspase-3/-7/-9 ([2]; 100, 200, 400 nM, 48 h): concentration-dependent activation
cleavage of PARP ([2]; 100, 200, 400 nM, 48 h): significant cleavage of PARP
invasion ability of cells (HUVECs [3]): invasion ability of cells gradually weakened
width and length of tubule-like network formation (HUVECs [4]): reduced in a concentration-dependent manner
Late-apoptosis AVERAGE (MCF-7 cells [5]; 100nM): 37.3
Pro-apoptosis AVERAGE (MCF-7 cells [5]; 100nM): 6.425
Late-apoptosis (Q2 of Annexin/PI plot), single runs (MCF-7 cells [5]; 100nM): 36 and 38.6
Pro-apoptosis (Q3 of Annexin/PI plot), single runs (MCF-7 cells [5]; 100nM): 7.59 and 5.26
percentage of apoptotic cells (early and late apoptosis) (MCF-7 cells [5]; 100nM): 44%
Late-apoptosis AVERAGE (MCF-7 cells [5]; 200nM): 48.8
Pro-apoptosis AVERAGE (MCF-7 cells [5]; 200nM): 3.01
Late-apoptosis (Q2 of Annexin/PI plot), single runs (MCF-7 cells [5]; 200nM): 49.3 and 48.3
Pro-apoptosis (Q3 of Annexin/PI plot), single runs (MCF-7 cells [5]; 200nM): 3.29 and 2.73
percentage of apoptotic cells (early and late apoptosis) (MCF-7 cells [5]; 200nM): 53%
Late-apoptosis AVERAGE (MCF-7 cells [5]; 400nM): 52.3
Pro-apoptosis AVERAGE (MCF-7 cells [5]; 400nM): 4.22
Late-apoptosis (Q2 of Annexin/PI plot), single runs (MCF-7 cells [5]; 400nM): 52.8 and 51.8
Pro-apoptosis (Q3 of Annexin/PI plot), single runs (MCF-7 cells [5]; 400nM): 4.66 and 3.78
percentage of apoptotic cells (early and late apoptosis) (MCF-7 cells [5]; 400nM): 57%

— paper PMC8652888, “Angiogenesis, Anti-Tumor, and Anti-Metastatic Activity of Novel α-Substituted Hetero-Aromatic Chalcone Hybrids as Inhibitors of Microtubule Polymerization” (Frontiers in Chemistry, 2021)
